We go through twelve compounds from patent US20230312529A1, “PYRIMIDINE SMALL-MOLECULE COMPOUND AND APPLICATION THEREOF” (WENZHOU MEDICAL UNIVERSITY, priority 2021, published 2023).

Structures are written as SMILES. Several values for one entry are separate records, joined by “and”; a condition that tells them apart may be missing. Equal values may be shown once. Read-outs that look alike come from different tables or passages of the source.

In assay [1] the target is ABL1 (Homo sapiens (Human), UniProt P00519). Description: Caliper Mobility Shift kinase inhibition test. Format: biochemical. The following applies: 100 nM; for inhibition at 0.1 µM: read-out: inhibitory rate on ABL1. The method, then: (§1) The method adopted in the test was Caliper Mobility Shift Assay, which was a detection platform based on the mobility detection technology of microfluidic chip technology. […] Collected data was tested on Caliper to yield that inhibition ratio to kinase activity=(max−conversion)/(max−min)×100. “max” was DMSO control without adding compound, and “min” was low control. When IC50 was determined, each sample was provided with 10 dilutions, each with 2 multiple holes, and repeated for 3 times.

In assay [2] the target is PDGFRα (Homo sapiens (Human), UniProt P16234). Put plainly: Caliper Mobility Shift kinase inhibition test. Format: biochemical. As for the experimental part: as §1
Sequence of PDGFRα (P16234 24-1089): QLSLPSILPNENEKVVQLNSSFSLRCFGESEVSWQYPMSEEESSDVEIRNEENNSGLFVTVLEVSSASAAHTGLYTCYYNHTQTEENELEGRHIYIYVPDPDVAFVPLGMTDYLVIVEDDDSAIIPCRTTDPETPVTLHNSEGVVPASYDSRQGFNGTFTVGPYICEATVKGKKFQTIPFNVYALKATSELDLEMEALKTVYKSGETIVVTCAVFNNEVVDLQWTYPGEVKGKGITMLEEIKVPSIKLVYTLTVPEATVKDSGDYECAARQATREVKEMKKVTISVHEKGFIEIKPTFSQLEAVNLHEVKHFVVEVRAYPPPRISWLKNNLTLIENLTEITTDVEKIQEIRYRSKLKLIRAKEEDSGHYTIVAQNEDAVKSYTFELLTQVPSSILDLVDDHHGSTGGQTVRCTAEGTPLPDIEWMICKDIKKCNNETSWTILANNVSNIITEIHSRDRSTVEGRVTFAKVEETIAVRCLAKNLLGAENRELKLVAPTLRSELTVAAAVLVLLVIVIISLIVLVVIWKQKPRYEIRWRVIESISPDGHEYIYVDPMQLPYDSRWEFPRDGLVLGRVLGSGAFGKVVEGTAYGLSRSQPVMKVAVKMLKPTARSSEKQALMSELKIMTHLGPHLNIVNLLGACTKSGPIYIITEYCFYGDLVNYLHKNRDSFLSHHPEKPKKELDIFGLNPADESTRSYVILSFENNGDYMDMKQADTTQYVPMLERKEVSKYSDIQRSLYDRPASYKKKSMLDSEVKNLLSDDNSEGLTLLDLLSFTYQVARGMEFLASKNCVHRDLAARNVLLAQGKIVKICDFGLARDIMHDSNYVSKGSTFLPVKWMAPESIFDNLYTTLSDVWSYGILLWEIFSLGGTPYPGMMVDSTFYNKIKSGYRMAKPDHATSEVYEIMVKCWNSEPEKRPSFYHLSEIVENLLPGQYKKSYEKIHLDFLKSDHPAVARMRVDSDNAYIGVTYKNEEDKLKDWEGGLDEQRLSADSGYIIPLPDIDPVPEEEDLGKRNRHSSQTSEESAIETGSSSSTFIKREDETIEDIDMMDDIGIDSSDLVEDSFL
Assay [3] has as its target PDGFRβ (Homo sapiens (Human), UniProt P09619). Put plainly: Caliper Mobility Shift kinase inhibition test. The settings on record: for inhibition at 0.1 µM / inhibitory rate on PDGFR-β: 100 nM; for inhibition at 0.1 µM: read-out: inhibitory rate on PDGFR-β; for IC50: read-out: IC50 PDGFR-β. Format: biochemical. As for the experimental part:
(§2) The method adopted in the test was Caliper Mobility Shift Assay, which was a detection platform based on the mobility detection technology of microfluidic chip technology. Test steps: 1.25× kinase reaction buffer (62.5 mmol/L HEPES, pH 7.5; 0.001875% Brij-35; 12.5 mmol/L MgCl2; 2.5 mM DTT) and kinase reaction stop solution (100 mmol/L HEPES, pH 7.5; 0.015% Brij-35; 0.2% Coating Reagent #3) were configured. […] Collected data was tested on Caliper to yield that inhibition ratio to kinase activity=(max−conversion)/(max−min)×100. “max” was DMSO control without adding compound, and “min” was low control. When IC50 was determined, each sample was provided with 10 dilutions, each with 2 multiple holes, and repeated for 3 times.
(§3) According to the above-mentioned method for measuring kinase inhibitory activity, the inhibitory activity of the active compounds on other multiple kinases was measured to characterize the kinase selectivity of active inhibitors.

In assay [4] the target is FLT3 (Homo sapiens (Human), UniProt P36888). Description: Caliper Mobility Shift kinase inhibition test. Format: biochemical. The settings on record: 100 nM; for inhibition at 0.1 µM: read-out: inhibitory rate on FLT3. As for the experimental part:
as §2

The target of assay [5] is FGFR2 (Homo sapiens (Human), UniProt P21802). Description: Caliper Mobility Shift kinase inhibition test. Format: biochemical. As for the experimental part:
as §2, §3

For assay [6], the target named is JAK1 (Homo sapiens (Human), UniProt P23458). Description: Caliper Mobility Shift kinase inhibition test. Format: biochemical. The method, then:
as §2, §3

The target in assay [7] is ALK (Homo sapiens (Human), UniProt Q9UM73). Put plainly: Caliper Mobility Shift kinase inhibition test. The assay is classed as biochemical. The method, then: as §2
Sequence of ALK (Q9UM73 19-1620, species assumed): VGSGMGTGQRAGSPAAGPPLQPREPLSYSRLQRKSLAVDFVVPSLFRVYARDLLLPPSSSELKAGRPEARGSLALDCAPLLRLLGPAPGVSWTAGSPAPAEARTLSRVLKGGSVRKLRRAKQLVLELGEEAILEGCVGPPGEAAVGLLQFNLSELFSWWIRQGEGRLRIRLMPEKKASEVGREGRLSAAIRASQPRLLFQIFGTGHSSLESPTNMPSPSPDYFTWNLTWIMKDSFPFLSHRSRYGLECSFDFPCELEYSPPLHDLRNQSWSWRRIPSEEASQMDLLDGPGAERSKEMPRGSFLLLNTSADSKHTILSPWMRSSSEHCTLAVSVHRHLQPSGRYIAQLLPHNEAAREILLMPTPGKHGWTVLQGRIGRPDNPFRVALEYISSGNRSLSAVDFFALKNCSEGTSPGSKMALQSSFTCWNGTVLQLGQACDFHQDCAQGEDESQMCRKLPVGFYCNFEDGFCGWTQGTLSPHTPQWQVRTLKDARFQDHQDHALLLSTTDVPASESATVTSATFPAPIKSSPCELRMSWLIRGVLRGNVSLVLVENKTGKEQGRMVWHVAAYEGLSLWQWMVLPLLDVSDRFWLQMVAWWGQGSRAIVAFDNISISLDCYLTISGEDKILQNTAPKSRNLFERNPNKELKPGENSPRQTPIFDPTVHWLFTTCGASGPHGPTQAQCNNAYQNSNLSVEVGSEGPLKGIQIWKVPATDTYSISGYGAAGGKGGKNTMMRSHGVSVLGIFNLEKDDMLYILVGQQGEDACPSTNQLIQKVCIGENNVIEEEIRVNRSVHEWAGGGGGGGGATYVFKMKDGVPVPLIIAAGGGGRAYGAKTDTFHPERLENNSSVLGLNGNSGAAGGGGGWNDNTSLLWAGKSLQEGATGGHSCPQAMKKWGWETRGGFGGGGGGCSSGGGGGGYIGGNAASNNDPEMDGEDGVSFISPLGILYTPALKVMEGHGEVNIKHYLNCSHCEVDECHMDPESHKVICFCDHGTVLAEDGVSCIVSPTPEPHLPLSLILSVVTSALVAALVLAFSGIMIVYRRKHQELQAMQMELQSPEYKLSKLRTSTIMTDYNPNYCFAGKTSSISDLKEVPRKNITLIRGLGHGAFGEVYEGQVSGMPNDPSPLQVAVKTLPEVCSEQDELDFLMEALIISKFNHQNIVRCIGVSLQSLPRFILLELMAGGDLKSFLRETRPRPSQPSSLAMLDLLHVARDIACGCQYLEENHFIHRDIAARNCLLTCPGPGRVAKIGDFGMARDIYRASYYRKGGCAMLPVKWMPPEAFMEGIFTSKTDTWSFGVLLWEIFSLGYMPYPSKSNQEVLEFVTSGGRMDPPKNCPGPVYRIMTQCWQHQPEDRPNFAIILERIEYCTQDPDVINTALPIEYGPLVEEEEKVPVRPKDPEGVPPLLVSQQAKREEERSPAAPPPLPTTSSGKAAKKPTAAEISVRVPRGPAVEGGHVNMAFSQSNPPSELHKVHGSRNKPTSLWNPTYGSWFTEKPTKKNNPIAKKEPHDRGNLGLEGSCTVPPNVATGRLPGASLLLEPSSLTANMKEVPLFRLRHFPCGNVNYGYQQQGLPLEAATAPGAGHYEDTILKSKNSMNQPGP
For assay [8], the target named is IKK β (Homo sapiens (Human), UniProt O14920). Put plainly: Caliper Mobility Shift kinase inhibition test. Format: biochemical. The method, then:
as §2

Assay [9] deals with MG-63 osteosarcoma cells. Put plainly: MTT assay on osteosarcoma cells. Format: cell-based. The settings on record: Homo sapiens, 48 hours, read-out: Inhibitory activity (IC50) MG-63. The method, then:
(§4) Logarithmic osteosarcoma cells were inoculated into a 96-well plate with a cell concentration of 1,500 cell/well for 6 hours by using MTT assay, and each well was filled with 200 μL of cell suspension. […] The samples were cultured in an incubator for 48 hours (37° C., 5% CO2), and 20 v L of MTT (3-(4,5-dimethylthiazole-2)-2,5-diphenyltetrazole) were added into each hole. After continuous culture for 4 hours, the culture solution was discarded by suction, and 200 v L of DMSO were added to each well. […] Calculation method of IC50 value: the IC50 values of the samples were calculated by curve fitting with GraphPad Prism software.
Background: Formazan colour is commonly taken as a measure of viable cells.

The test system of assay [10] is MNNG/HOS osteosarcoma cells. Put plainly: MTT assay on osteosarcoma cells. Format: cell-based. The following applies: 48 hours, read-out: Inhibitory activity (IC50) MNNG/HOS. The method, then:
as §4

The test system of assay [11] is SAOS-2 osteosarcoma cells. Description: MTT assay on osteosarcoma cells. The settings on record: Homo sapiens, 48 hours, read-out: Inhibitory activity (IC50) SAOS-2. The assay is classed as cell-based. The method, then: as §4
The subject of assay [12] is U2OS osteosarcoma cells. Put plainly: MTT assay on osteosarcoma cells. The following applies: Homo sapiens, 48 hours, read-out: Inhibitory activity (IC50) U2OS. The assay is classed as cell-based. As for the experimental part: as §4
The test system of assay [13] is human normal retinal cells ARPE-19. Description: MTT assay on human retinal cells. The assay is classed as cell-based. The settings on record: Homo sapiens, ARPE-19; MTT; read-out: Inhibitory activity (IC50) ARPE-19.
For assay [14], the system named is human brain microvascular endothelial cells (HCMEC/D3). Description: MTT assay on human neovascular cells. The assay is classed as cell-based. The following applies: Homo sapiens, hCMEC/D3; MTT; read-out: Inhibitory activity (IC50) HCMEC-D3.
For assay [15], the system named is human cerebrovascular pericytes (HBVP). Put plainly: MTT assay on human neovascular cells. The assay is classed as cell-based. The following applies: Homo sapiens; MTT; read-out: Inhibitory activity (IC50) HBVP.

Sequence of IKK β (O14920 whole entry, species assumed): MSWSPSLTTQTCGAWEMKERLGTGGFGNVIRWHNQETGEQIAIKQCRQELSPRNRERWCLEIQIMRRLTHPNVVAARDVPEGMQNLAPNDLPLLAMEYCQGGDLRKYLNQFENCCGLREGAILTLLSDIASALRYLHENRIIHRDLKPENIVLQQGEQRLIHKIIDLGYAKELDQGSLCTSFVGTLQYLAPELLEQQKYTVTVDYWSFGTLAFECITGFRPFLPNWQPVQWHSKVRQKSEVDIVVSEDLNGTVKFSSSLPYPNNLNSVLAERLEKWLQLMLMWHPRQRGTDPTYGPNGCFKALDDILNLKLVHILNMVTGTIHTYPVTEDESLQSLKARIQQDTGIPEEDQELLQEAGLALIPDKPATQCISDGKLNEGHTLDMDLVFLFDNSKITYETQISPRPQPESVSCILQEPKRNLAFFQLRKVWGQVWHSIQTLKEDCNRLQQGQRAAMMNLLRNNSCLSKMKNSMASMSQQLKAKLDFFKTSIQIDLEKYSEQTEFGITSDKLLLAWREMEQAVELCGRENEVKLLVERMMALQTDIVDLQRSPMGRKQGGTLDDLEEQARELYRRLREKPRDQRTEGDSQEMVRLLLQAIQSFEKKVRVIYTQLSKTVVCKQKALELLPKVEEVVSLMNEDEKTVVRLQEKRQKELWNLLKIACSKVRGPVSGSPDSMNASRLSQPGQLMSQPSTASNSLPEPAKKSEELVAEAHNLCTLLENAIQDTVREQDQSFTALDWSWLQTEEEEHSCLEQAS
Sequence of JAK1 (P23458 whole entry, species assumed): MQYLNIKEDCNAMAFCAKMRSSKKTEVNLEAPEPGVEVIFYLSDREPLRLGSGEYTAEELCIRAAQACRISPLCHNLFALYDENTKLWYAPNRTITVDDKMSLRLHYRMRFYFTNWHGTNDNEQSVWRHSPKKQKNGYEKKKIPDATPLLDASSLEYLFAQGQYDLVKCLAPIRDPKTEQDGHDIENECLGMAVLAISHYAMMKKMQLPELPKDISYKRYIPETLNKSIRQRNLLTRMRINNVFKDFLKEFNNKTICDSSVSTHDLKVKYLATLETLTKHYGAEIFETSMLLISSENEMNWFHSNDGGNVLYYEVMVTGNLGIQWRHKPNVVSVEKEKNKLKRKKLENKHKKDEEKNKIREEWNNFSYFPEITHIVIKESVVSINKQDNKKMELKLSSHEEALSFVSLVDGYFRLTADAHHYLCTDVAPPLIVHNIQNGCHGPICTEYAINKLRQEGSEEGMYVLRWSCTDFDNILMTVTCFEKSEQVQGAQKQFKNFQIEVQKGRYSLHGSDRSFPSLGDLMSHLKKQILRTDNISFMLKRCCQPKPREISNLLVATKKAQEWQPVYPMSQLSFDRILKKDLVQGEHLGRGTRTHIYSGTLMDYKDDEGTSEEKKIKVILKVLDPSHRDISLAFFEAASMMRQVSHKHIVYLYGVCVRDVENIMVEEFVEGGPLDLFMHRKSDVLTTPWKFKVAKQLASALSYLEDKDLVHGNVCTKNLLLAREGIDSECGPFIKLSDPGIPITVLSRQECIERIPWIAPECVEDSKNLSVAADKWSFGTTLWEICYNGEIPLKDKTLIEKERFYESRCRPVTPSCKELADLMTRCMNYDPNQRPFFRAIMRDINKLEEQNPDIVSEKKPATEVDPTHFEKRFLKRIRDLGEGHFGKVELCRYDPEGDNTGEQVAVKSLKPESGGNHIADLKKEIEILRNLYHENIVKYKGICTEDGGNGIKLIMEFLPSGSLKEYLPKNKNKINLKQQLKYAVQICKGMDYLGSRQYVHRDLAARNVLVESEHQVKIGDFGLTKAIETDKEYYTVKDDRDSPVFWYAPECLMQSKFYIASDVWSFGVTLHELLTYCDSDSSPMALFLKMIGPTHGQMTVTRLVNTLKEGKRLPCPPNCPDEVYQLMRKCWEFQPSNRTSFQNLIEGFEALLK

On to `Cc1cnc(Nc2ccc(N3CCN(C)CC3)cc2)nc1Nc1ccc2cnn(C)c2c1` [Compound 5k, 5-methyl-N^4-(1-methyl-1H-indazol-6-yl)-N^2-(4-(4-methylpiperazine-1-yl)phenyl)pyrimidine-2,4-diamine], for which the inhibition at 0.1 µM in [1] is 90.4%; in assay [2] (100 nM, read-out: inhibitory rate on PDGFR-α), 91.1%; in [3], 96.4%; in assay [4], 88.7%. The IC50 in [2] (read-out: IC50 PDGFR-α) turned out to be 0.019 µM; in [3], 0.0073 µM.

`Cc1cnc(Nc2ccc(N3CCC(F)(F)CC3)cc2)nc1Nc1ccc2cn[nH]c2c1` [Compound 6c]: the “inhibitory rate on ABL1” value in [1] is recorded as 50.6%. Also, the IC50 in assay [5] was 0.54 µM; in [6], 0.072 µM; in assay [3], 0.103 µM; in [7] it was 0.476 µM; in assay [8], greater than 1 µM. For the same compound, the “inhibitory rate on PDGFR-β” value in assay [3] is reported as 48.5%. For the same compound, the “inhibitory rate on FLT3” value in assay [4] stood at 74.6%.

With `Cc1cnc(Nc2ccc(N3CCS(=O)(=O)CC3)cc2)nc1Nc1ccc2cn[nH]c2c1` [Compound 6d, 4-(4-((4-((1H-indazol-6-yl)amino)-5-methylpyrimidine-2-yl)amino)phenyl)thiomorpholine 1,1-dioxide], the inhibition at 0.1 µM in assay [1] turned out to be 59.6%; in assay [3], 70.3%; in [4] it was 78.4%. Moreover, the IC50 in assay [5] is 0.117 µM; in [6], 0.099 µM; in [3] it was 0.0703 µM and 0.039 µM; in assay [7], 0.186 µM; in assay [8], 0.619 µM.

On to `COc1cc(N2CCN(C)CC2)ccc1Nc1ncc(C)c(Nc2ccc3cn[nH]c3c2)n1` [Compound 6e, N^4-(1H-indazol-6-yl)-N^2-(2-methoxy-4-(4-methylpiperazine-1-yl)phenyl)-5-methylpyrimidine-2,4-diamine], for which the values for the inhibition at 0.1 µM in assay [1], in assay [3] and in assay [4] were 78.8%, 63.4% and 79.5%, respectively. Also, the IC50 is greater than 1 µM in assay [5]; 0.199 µM in [6]; 0.072 µM in [3]; 0.007 µM in assay [7]; greater than 1 µM in [8].

With `COc1cc(Nc2ncc(C)c(Nc3ccc4cn[nH]c4c3)n2)ccc1N1CCN(C)CC1` [Compound 6f, N^4-(1H-indazol-6-yl)-N^2-(3-methoxy-4-(4-methylpiperazine-1-yl)phenyl)-5-methylpyrimidine-2,4-diamine], the inhibition at 0.1 µM in assay [1] came out at 98%; in [3], 97%; in [4] it was 97.8%. The IC50 is 0.061 µM in [5]; 0.031 µM in [6]; 0.0026 µM in assay [3]; 0.011 µM in [7]; greater than 1 µM in assay [8]; 0.841 ± 0.005 µM in assay [9]. For the same compound, the values for the IC50 in assay [10], in assay [11] and in [12] were 1.36 ± 0.019 µM, 0.72 ± 0.025 µM and 0.756 ± 0.001 µM, respectively. Also, the “inhibitory activity on PDGFRβ (in words)” value in assay [3] is listed as “significant inhibitory activities”.

With `Cc1cnc(Nc2ccc(N3CCN(C)CC3)cc2)nc1Nc1ccc2cn[nH]c2c1` [Compound 6g, N^4-(1H-indazol-6-yl)-5-methyl-N^2-(4-(4-methylpiperazine-1-yl)phenyl)pyrimidine-2,4-diamine], the “inhibitory rate on ABL1” value in assay [1] was determined as 89.6%. In addition, the IC50 came out at 0.081 µM in assay [5]; 0.013 µM in assay [6]; 0.0088 µM in [3]; 0.026 µM in assay [7]; 0.595 µM in [8]. In [3], the “inhibitory activity on PDGFRβ (in words)” value is recorded as “significant inhibitory activities”. The “inhibitory rate on PDGFR-β” value in assay [3] came out at 93.8%. Besides, the “inhibitory rate on FLT3” value in assay [4] was determined as 87.6%.

With `CCN1CCN(c2ccc(Nc3ncc(C)c(Nc4ccc5cn[nH]c5c4)n3)c(OC)c2)CC1` [Compound 6h, N^2-(4-(4-ethylpiperazine-1-yl)-2-methoxyphenyl)-N^4-(1H-indazol-6-yl)-5-methylpyrimidine-2,4-diamine], the figures for the inhibition at 0.1 µM in [1], in assay [3] and in assay [4] were 87.5%, 80.2% and 82.6%, respectively. For the same compound, the IC50 in [5] was greater than 1 µM; in [6] it was 0.32 µM; in [3] it was 0.04 µM; in assay [7], 0.0058 µM; in [8], greater than 1 µM.

On to `Cc1cnc(Nc2ccc(N3CCC(N4CCN(C)CC4)CC3)cc2)nc1Nc1ccc2cn[nH]c2c1` [Compound 6j, N^4-(1H-indazol-6-yl)-5-methyl-N^2-(4-(4-(4-methylpiperazine-1-y 1)piperidine-1-yl)phenyl)pyrimidine-2,4-diamine], for which the “inhibitory rate on ABL1” value in assay [1] is given as 87.6%. The IC50 in [5] was 0.089 µM; in assay [6], 0.014 µM; in [3], 0.012 µM; in assay [7] it was 0.023 µM; in assay [8] it was greater than 1 µM. The “inhibitory rate on PDGFR-β” value in assay [3] is listed as 85.4%. Further, the “inhibitory rate on FLT3” value in [4] was 91.0%.

For the compound `Cc1cnc(Nc2ccc(C(=O)NCCN3CCOCC3)cc2)nc1Nc1ccc2cn[nH]c2c1` [Compound 6n], the “inhibitory rate on ABL1” value in assay [1] amounted to 81.2%. In addition, the IC50 was determined as 0.102 µM in [5]; 0.006 µM in [6]; 0.019 µM in [3]; 0.095 µM in [7]; 0.181 µM in assay [8]. Besides, the “inhibitory rate on PDGFR-β” value in [3] worked out at 82.4%. For the same compound, the “inhibitory rate on FLT3” value in [4] is listed as 82.3%.

For `Cc1ccc(Nc2nccc(N(C)c3ccc4c(C)n(C)nc4c3)n2)cc1S(N)(=O)=O` [Pazopanib, reference compound], the inhibition at 0.1 µM amounted to 96.9% in assay [2] (read-out: inhibitory rate on PDGFR-α, 100 nM); 76.7% in assay [3]; 80.6% in assay [4]. For the same compound, the IC50 is greater than 100 µM in assay [9], 8.52 ± 0.868 µM in assay [10], greater than 100 µM in [11] and greater than 100 µM in [12].

Consider `CNC(=O)c1cc(Oc2ccc(NC(=O)Nc3ccc(Cl)c(C(F)(F)F)c3)cc2)ccn1` [Sorafenib, reference compound], for which the figures for the IC50 in assay [13], in assay [14] and in assay [15] were 23.29 ± 0.143 µM, 6.32 ± 0.73 µM and 9.92 ± 0.598 µM, respectively.

Turning to `Cc1[nH]c(/C=C2\C(=O)Nc3ccc(F)cc32)c(C)c1C(=O)N[C@H]1CCN(C(=O)N(C)C)C1` [Vorolanib, reference compound], the IC50 in assay [13] is 56.2 ± 3.23 µM; in assay [14] it was 34.3 ± 0.885 µM; in assay [15] it was 18.5 ± 10.5 µM.
